Results published in US20250295799A1, “ANTIBODY-DRUG CONJUGATES TARGETING GLYPICAN-3 AND METHODS OF USE” (Zymeworks BC Inc., priority 2022, published 2025).

Key:
[1] = test system: JHH-7 cells (high GPC3-expressing); test: Internalization by flow cytometry (quenched AF488); assay type: cell-based; conditions: JHH-7; 5 nM; 24 h
Description: (§1) Cells were seeded at 50,000 cells/well in 48-well plates and incubated overnight under standard culturing conditions (37° C./5% CO2) in Gibco™ Dulbecco's Modified Eagle Media (DMEM) (Thermo Fisher Scientific, Waltham, MA; Cat. No. 11995040) with 10% Fetal Bovine Serum (FBS) (Thermo Fisher Scientific, Waltham, MA; Cat. No. 12483020) for Hep G2 cells, and Gibco™ William's E Medium, GlutaMAX™ Supplement (Thermo Fisher Scientific, Waltham, MA; Cat. No. 32551020) with 10% FBS (Thermo Fisher Scientific, Waltham, MA; Cat. No. 12483020) for JHH-7 cells. Coupled antibodies were added to cells the following day at 10 nM or at 100 nM and incubated under standard culturing conditions for 5-24 hours to allow for internalization. Following incubation, cells were dissociated, washed, and surface AF488 fluorescence was quenched using an anti-AF488 antibody (Life Technologies, Carlsbad, CA; Cat. No. A-11094) at 100 nM for 30 minutes at 4° C. Quenched AF488 fluorescence (internalized fluorescence) was detected by flow cytometry on a BD LSRFortessa™ Cell Analyzer (BD Biosciences, Franklin Lake, NJ) with 1,000 minimum events collected per well.
as §1, with “CO2)” for “CO2) in Gibco™ Dulbecco's Modified Eagle Media (DMEM) (Thermo Fisher Scientific, Waltham, MA; Cat. No. 11995040) with 10% Fetal Bovine Serum (FBS) (Thermo Fisher Scientific, Waltham, MA; Cat. No. 12483020) for Hep G2 cells, and”, “12483020).” for “12483020) for JHH-7 cells.”, “5” for “10 nM or at 100”, “24” for “5-24”, “well. […]” for “well.”

[2] = test system: cynomolgus monkey GPC3 on transfected CHO-S cells; test: Binding to transfected CHO-S cells by flow cytometry; conditions: 24 h at 4 °C
Sequence of cynomolgus monkey GPC3 on transfected CHO-S cells (as listed by the source): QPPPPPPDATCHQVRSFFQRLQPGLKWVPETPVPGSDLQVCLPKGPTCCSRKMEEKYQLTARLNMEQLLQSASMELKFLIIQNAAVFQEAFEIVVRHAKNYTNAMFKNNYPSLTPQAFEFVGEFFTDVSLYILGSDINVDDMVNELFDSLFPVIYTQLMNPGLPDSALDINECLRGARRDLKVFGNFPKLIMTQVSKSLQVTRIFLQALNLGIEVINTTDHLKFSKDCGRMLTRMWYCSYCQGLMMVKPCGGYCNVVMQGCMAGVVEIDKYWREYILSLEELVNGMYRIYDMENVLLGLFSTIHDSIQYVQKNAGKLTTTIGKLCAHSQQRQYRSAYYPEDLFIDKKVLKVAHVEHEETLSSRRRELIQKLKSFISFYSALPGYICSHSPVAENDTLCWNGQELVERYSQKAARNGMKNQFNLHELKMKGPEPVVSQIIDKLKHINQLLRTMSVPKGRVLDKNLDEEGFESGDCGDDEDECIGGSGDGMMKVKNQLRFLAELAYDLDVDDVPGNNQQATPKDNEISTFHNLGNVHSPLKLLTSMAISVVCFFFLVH
Description: Briefly, CHO—S cells were transiently transfected for −24 hours with a pTT5-based expression plasmid encoding human GPC3 or cynomolgus monkey GPC3, 0.5 μg DNA per 1 million cells, using the Neon™ Transfection System (Thermo Fisher Scientific Corp., Waltham, MA), to transiently express human or cynomolgus monkey GPC3. Following transfection, cells were seeded at 50,000 cells/well in V-bottom 96-well plates and treated with antibody for 24 hours at 4° C. to prevent internalization. […] Following incubation and washing, fluorescence was detected by flow cytometry on a BD LSRFortessa™ Cell Analyzer (BD Biosciences, Franklin Lake, NJ) with 1,000 minimum events collected per well. AF647/APC-A GeoMean (fluorescence signal geometric mean, proportional to anti-Human AF647 binding) in live cell population was plotted against antibody concentration using GraphPad Prism Version 9 (GraphPad Software, San Diego, CA). The Bmax and Kd values were derived from the “Specific binding with Hill slope” nonlinear regression curve fit in GraphPad Prism Version 9.
Briefly, CHO—S cells were transiently transfected for −24 hours with a pTT5-based expression plasmid encoding human GPC3 or cynomolgus monkey GPC3, 0.5 μg DNA per 1 million cells, using the Neon™ Transfection System (Thermo Fisher Scientific Corp., Waltham, MA), to transiently express human or cynomolgus monkey GPC3. […]

Substance: palivizumab
- internalization, in words [1]: minimal internalization
- binding to CHO-S cells expressing cynomolgus monkey GPC3, in words [2]: did not exhibit any binding
